{"source": "patent US5886190A", "about": "“Rapid synthesis and use of 18F-fluoromisonidazole and analogs” (priority 1997, dated 1999)", "key": {"[1]": {"test_system": "intracellular nitroreductases", "conditions": "cited from earlier work"}, "[2]": {"test_system": "hypoxic elements within a tumor volume", "assay": "Patient studies of ^18 F-FMISO uptake in tumors", "conditions": "in vivo", "from_the_text": "In patient studies, the hypoxic elements within a tumor volume was defined as regions with a threshold regional tumor to plasma (^18 F-FMISO) ratio of ≥1.4 by 2 or more hours after injection."}, "[3]": {"test_system": "hypoxic cells", "assay": "Selectivity to hypoxic cells (PET imaging, autoradiograms, biodistribution)", "conditions": "in vivo", "protocol": "(§1) The synthesis scheme for [^18 F]FETNIM is depicted in FIG. 6. Biodistribution studies of [^18 F]FETNIM were performed at 1, 2 and 4 hours in mammary tumor-bearing rats (10 μCi, iv, N=3/time interval). Autoradiograms were performed at 1 hour postinjection of [^18 F]FETNIM, and a comparison has been made with [^18 F]fluoromisonidazole (FMISO). Intratumoral oxygen tension measurements were performed using the Eppendorf computerized histographic system. Twenty to twenty-five pO2 measurements along each of 2 to 3 linear tracks were performed at 0.4 mm intervals on each tumor. PET imaging studies of [^18 F]FETNIM were performed in rabbits bearing V2 tumors (N=3, 4 mCI, iv) which were located on the right leg.\nPET imaging was performed with a positron camera (Positron Corporation, Houston, Tex.). The tomograph has a field-of-view of 42 cm on transverse and 12 cm on coronal planes. The axial resolution on the reconstructed plane is 1.2 cm. […]\nFemale Fischer 344 rats (250-275 g) (Harlan, Inc., Indianapolis, Ind.) were inoculated with mammary tumor cells in the lumbar area using a 13762 tumor cell line (s.c. 10^5 cells/rat). […] The tissues were excised, weighed and counted for radioactivity. The percent of injected dose per gram of tissue weight was determined."}, "[4]": {"assay_type": "in vivo, 70 Kg male (human)", "from_the_text": "The following Table summarizes the results of dosimetry calculation for radiation exposure to several […] tissues.\nDosimetry: Normal Tissue Dosimetry for ^18 F-FMISO"}, "[5]": {"test_system": "nasalpharyngeal cancer (NPC)", "assay": "PET imaging of patients with nasalpharyngeal cancer", "assay_type": "in vivo, human (patients)", "conditions": "10 mCi", "protocol": "PET imaging studies were performed on two patients with nasalpharyngeal cancer (NPC). […] After each patient had received 10 mCi of [^18 F]FMISO, eight consecutive 15-min scans were taken. […] Each patient was also administered [^18 F]FDG to ascertain the tumor region."}, "[6]": {"test_system": "hypoxic elements within a tumor volume", "conditions": "2 or more hours after injection; cited from earlier work"}, "[7]": {"test_system": "rats", "conditions": "2 mCi/Kg single dose; n=3; follow-up 5 days", "protocol": "In addition, animal acute toxicity studies have been performed, rats (n=3) were administered 2 mCi/Kg as a single dose."}, "[8]": {"test_system": "mammary tumor", "assay": "Autoradiographic studies in tumor-bearing rats", "conditions": "1 hour postinjection", "protocol": "as §1\nFemale Fischer 344 mammary tumor-bearing rats (n=3) after receiving [^18 F]FETNIM (2 mCi, iv) were sacrificed at 1 h. […] The rats were sacrificed at 1 hour postinjection. The rat body was fixed in a carboxymethyl cellulose (4%) block. The frozen body in a block was mounted to a cryostat (LKB 2250 cryo-microtome, Ijamsville, Md.) and 40 μm coronal sections were made. The section was freeze dried, then mounted on a x-ray film (X-Omat AR, Kodak, Rochester, N.Y.) for 24 hours."}, "[9]": {"test_system": "hypoxic cells", "conditions": "radiobiologically significant oxygen levels; cited from earlier work"}}}
{"smiles": "O=[N+]([O-])c1nccn1CC(O)C[18F]", "note": "(stereo not shown) [[^18 F]FMISO, 3-[^18 F]Fluoro-1-(2'-nitro-1'-imidazoyl)-2-propanol]", "values": [{"measurement": "Metabolism", "setting": "[1]", "value": "metabolized by intracellular nitroreductases"}, {"measurement": "Feasibility of detecting hypoxia in human head and neck tumors", "setting": "[2]", "value": "feasibility of using ^18 F-FMISO to detect hypoxia in human head and neck tumors"}, {"measurement": "Selectivity to hypoxic cells", "setting": "[3]", "value": "selective to hypoxic cells"}, {"measurement": "Bladder wall dose relative to muscle dose", "setting": "[4]; 70 Kg male, 0.1 mCi/Kg", "value": "about five times as much"}, {"measurement": "Liver and kidney dose relative to muscle dose", "setting": "[4]; 70 Kg male, 0.1 mCi/Kg", "value": "nearly twice the muscle dose"}, {"measurement": "Total body musculature dose in a routine study", "setting": "[4]; 70 Kg male, 0.1 mCi/Kg", "value": 120, "unit": "mrem"}, {"measurement": "Normal tissue dose, bladder", "setting": "[4]; bladder, 7 mCi/70 Kg, n = 2", "value": 570, "unit": "mrad"}, {"measurement": "Normal tissue dosimetry, bladder", "setting": "[4]; bladder, ± SD", "value": "81.5 ± 47", "unit": "mrad/mCi"}, {"measurement": "Normal tissue dose, kidney", "setting": "[4]; kidney, 7 mCi/70 Kg, n = 3", "value": 180, "unit": "mrad"}, {"measurement": "Normal tissue dosimetry, kidney", "setting": "[4]; kidney, ± SD", "value": "25.8 ± 5.5", "unit": "mrad/mCi"}, {"measurement": "Normal tissue dose, liver", "setting": "[4]; liver, 7 mCi/70 Kg, n = 3", "value": 190, "unit": "mrad"}, {"measurement": "Normal tissue dosimetry, liver", "setting": "[4]; liver, ± SD", "value": "26.8 ± 9.7", "unit": "mrad/mCi"}, {"measurement": "Normal tissue dose, muscle", "setting": "[4]; muscle, 7 mCi/70 Kg, n = 6", "value": 120, "unit": "mrad"}, {"measurement": "Normal tissue dosimetry, muscle", "setting": "[4]; muscle, ± SD", "value": "16.8 ± 7.9", "unit": "mrad/mCi"}, {"measurement": "Detection of hypoxic tumors by PET", "setting": "[5]", "value": "able to detect primary or metastatic hypoxic tumors"}, {"measurement": "PET tumor uptake, first patient", "setting": "[5]; first patient", "value": "showed tumor uptake in the lymph node region"}, {"measurement": "PET finding, second patient", "setting": "[5]; second patient", "value": "the recurrent primary tumor is hypoxic"}, {"measurement": "Threshold regional tumor to plasma ratio defining hypoxic elements", "setting": "[6]", "value": "≥ 1.4"}, {"measurement": "Acute toxicity", "setting": "[7]", "value": "All rats tolerated this dose without toxicity"}, {"measurement": "Uptake in intestines and colon", "setting": "[8]", "value": "high uptake"}, {"measurement": "Differentiation of hypoxic versus necrotic regions in the tumor", "setting": "[8]; autoradiogram", "value": "could differentiate hypoxic versus necrotic regions in the tumor"}, {"measurement": "Selective binding to hypoxic cells", "setting": "[9]", "value": "bind selectively to hypoxic cells in vitro and in vivo"}]}
